Measured values from patent US11312723B2, “Pyranopyrazole and pyrazolopyridine immunomodulators for treatment of autoimmune diseases” (The Rockefeller University, priority 2017, dated 2022).
pIC50: −log10 of the molar value.

What follows are molecules tested against Human FXIIa (Homo sapiens (Human), UniProt P00748) (assay: Factor XIIa (FXIIa) inhibitory activity, chromogenic substrate (Pefachrome XIIa) cleavage). Conditions: 10 min pre-incubation, Pefachrome XIIa 400 μM.
Type: biochemical
Procedure: Factor XIIa (FXIIa) Inhibitory Activity:
In a 96-well clear bottom plate, 80 μl of assay buffer was added to each well. Assay buffer consists of 0.5× Hank's Balanced Salt Solution (Invitrogen), buffered with 25 mM HEPES pH 7.4 (Invitrogen) and 0.5× Tris-buffered saline with Tween-20 0.05% (Santa Cruz Biotechnology). Test compounds were first dissolved in DMSO (Sigma) and then 4 μl were added to test wells containing assay buffer. Serial dilutions using an automated multi-channel pipette were used to generate a concentration range of approximately 1-100 μM. Human FXIIa (Enzyme Research Labs) was diluted in assay buffer to a final concentration of 12.5 nM. 80 μl of this enzyme solution was added to the assay wells. The enzyme/compound mixtures were incubated for 10 minutes at room temperature. Chromogenic substrate (Pefachrome XIIa; Enzyme Research Labs) was added to assay wells at a final concentration of 400 μM. The assay plate was spun for 1 minute at 1500 g and then read at 37° C. in a SpectraMax M2 plate reader (λ=405 nm). Activity was quantified as the rate of change in absorbance, which corresponds to the rate of substrate cleavage. IC50 values were determined as the concentration of inhibitor that produced 50% of the rate of change of control wells without any inhibitor. For compounds with activity <1 μM, the assay was repeated with a lower concentration range, typically from 10-1000 nM.

Human FXIIa, sequence (P00748 373-615): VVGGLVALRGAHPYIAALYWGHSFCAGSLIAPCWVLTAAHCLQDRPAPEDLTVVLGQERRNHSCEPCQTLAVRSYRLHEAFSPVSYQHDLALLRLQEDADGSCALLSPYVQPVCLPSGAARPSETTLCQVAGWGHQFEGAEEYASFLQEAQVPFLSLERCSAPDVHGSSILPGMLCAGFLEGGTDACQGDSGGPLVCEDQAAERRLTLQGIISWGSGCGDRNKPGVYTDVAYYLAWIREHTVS
Human FXIIa, sequence (P00748 20-372 partner): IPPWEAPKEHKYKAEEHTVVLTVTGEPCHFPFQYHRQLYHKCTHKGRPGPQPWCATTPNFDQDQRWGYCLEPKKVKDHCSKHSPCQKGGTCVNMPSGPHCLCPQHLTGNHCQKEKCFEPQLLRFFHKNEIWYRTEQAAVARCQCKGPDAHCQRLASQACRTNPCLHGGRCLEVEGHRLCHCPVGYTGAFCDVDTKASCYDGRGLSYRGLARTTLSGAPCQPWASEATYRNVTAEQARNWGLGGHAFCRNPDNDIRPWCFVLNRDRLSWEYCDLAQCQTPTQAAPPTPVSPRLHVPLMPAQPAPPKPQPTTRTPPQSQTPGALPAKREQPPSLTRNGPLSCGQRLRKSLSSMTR

| Structure (SMILES) | pIC50 |
| --- | --- |
| Cc1cccc2c1NCC[C@@H]2C(=O)n1nc2c(c1N)COCC2 (single isomer, unassigned) [Example 190, (S*)-(3-amino-6,7-dihydropyrano[4,3-c]pyrazol-2(4H)-yl)(8-methyl-1,2,3,4-tetrahydro-quinolin-4-yl)methanone] | 7.30 |
| Cc1cc(F)cc2c1NCC[C@H]2C(=O)n1nc2c(c1N)COCC2 (single isomer, unassigned) [Example 192, (R*)-(3-amino-6,7-dihydropyrano[4,3-c]pyrazol-2(4H)-yl)(6-fluoro-8-methyl-1,2,3,4-tetrahydro-quinolin-4-yl)methanone] | 4.90 |
| Cc1cc(F)cc2c1NCC[C@@H]2C(=O)n1nc2c(c1N)COCC2 (single isomer, unassigned) [Example 193, (S*)-(3-amino-6,7-dihydropyrano[4,3-c]pyrazol-2(4H)-yl)(6-fluoro-8-methyl-1,2,3,4-tetrahydro-quinolin-4-yl)methanone] | 7.40 |
| Nc1c2c(nn1C(=O)[C@@H]1CCNc3ccc(F)cc31)COCC2 (single isomer, unassigned) [Example 197, (R*)-(3-amino-4,5-dihydropyrano[3,4-c]pyrazol-2(7H)-yl)(6-fluoro-1,2,3,4-tetrahydro-quinolin-4-yl)methanone] | 4.40 |
| Cc1cccc2c1NCC[C@H]2C(=O)n1nc2c(c1N)CCOC2 (single isomer, unassigned) [Example 199, (R*)-(3-amino-4,5-dihydropyrano[3,4-c]pyrazol-2(7H)-yl)(8-methyl-1,2,3,4-tetrahydro-quinolin-4-yl)methanone] | 4.10 |
| Nc1c2c(nn1C(=O)[C@@H]1CCNc3c(Cl)cccc31)COCC2 (single isomer, unassigned) [Example 201, (R*)-(3-amino-4,5-dihydropyrano[3,4-c]pyrazol-2(7H)-yl)(8-chloro-1,2,3,4-tetrahydro-quinolin-4-yl)methanone] | 4.80 |
| Nc1c2c(nn1C(=O)[C@H]1CCNc3c(Cl)cccc31)COCC2 (single isomer, unassigned) [Example 202, (S*)-(3-amino-4,5-dihydropyrano[3,4-c]pyrazol-2(7H)-yl)(8-chloro-1,2,3,4-tetrahydro-quinolin-4-yl)methanone] | 7.05 |
| Cc1cccc2c1NCC[C@@H]2C(=O)n1nc2c(c1N)CCN(CCO)C2 (single isomer, unassigned) [Example 204, (S*)-(3-amino-6-(2-hydroxyethyl)-4,5,6,7-tetrahydro-2H-pyrazolo[3,4-c]pyridin-2-yl)(8-methyl-1,2,3,4-tetrahydro-quinolin-4-yl)methanone] | 7.40 |
| Cc1cccc2c1NCC[C@H]2C(=O)n1nc2c(c1N)CCN(CCO)C2 (single isomer, unassigned) [Example 205, (R*)-(3-amino-6-(2-hydroxyethyl)-4,5,6,7-tetrahydro-2H-pyrazolo[3,4-c]pyridin-2-yl)(8-methyl-1,2,3,4-tetrahydro-quinolin-4-yl)methanone] | < 4.60 |
| Cc1cc2c(C(=O)n3nc4c(c3N)CN(C(=O)OC(C)(C)C)CC4)cccc2[nH]1 [Example 1, tert-butyl 3-amino-2-[(2-methyl-1H-indol-4-yl)carbonyl]-4,5,6,7-tetrahydro-2H-pyrazolo[4,3-c]pyridin-5-carboxylate] | 7.10 |
| Cc1cc2c(C(=O)n3nc4c(c3N)CNCC4)cccc2[nH]1 [Example 2, (3-amino-4,5,6,7-tetrahydropyrazolo[4,3-c]pyridin-2-yl)(2-methyl-1H-indol-4-yl)methanone] | 7.22 |
| CCc1cc2c([nH]1)CCCC2C(=O)n1nc(N)c2c1CCN(C(=O)OCc1ccccc1)C2 (centres unmarked) [Example 5, benzyl 3-amino-1-(2-ethyl-4,5,6,7-tetrahydro-1H-indole-4-carbonyl)-6,7-dihydro-1H-pyrazolo[4,3-c]pyridine-5(4H)-carboxylate] | < 4.40 |
| Cc1cc2c(C(=O)n3nc(N)c4c3CN(C(=O)OC(C)(C)C)CC4)cccc2[nH]1 [Example 8, tert-butyl 3-amino-1-(2-methyl-1H-indole-4-carbonyl)-4,5-dihydro-1H-pyrazolo[3,4-c]pyridine-6(7H)-carboxylate] | 4.30 |
| Cc1cc2c(C(=O)n3nc4c(c3N)CCN(Cc3ccccc3)C4)cccc2[nH]1 [Example 10, (3-amino-6-benzyl-4,5,6,7-tetrahydropyrazolo[3,4-c]pyridin-2-yl)(2-methyl-1H-indol-4-yl)methanone] | 7.52 |
| Cc1cc2c(C(=O)n3nc(N)c4c3CN(Cc3ccccc3)CC4)cccc2[nH]1 [Example 11, (3-amino-6-benzyl-4,5,6,7-tetrahydropyrazolo[3,4-c]pyridin-1-yl)(2-methyl-1H-indol-4-yl)methanone] | 4.30 |
| Cc1ccc2c(c1)C(C(=O)n1nc(N)c3c1CN(S(C)(=O)=O)CC3)CCN2 (centres unmarked) [Example 13, (3-amino-6-(methylsulfonyl)-4,5,6,7-tetrahydropyrazolo[3,4-c]pyridin-1-yl)(6-methyl-1,2,3,4-tetrahydroquinolin-4-yl)methanone] | < 4.05 |
| CS(=O)(=O)N1CCc2c(N)nn(C(=O)C3CCNc4ccc(F)cc43)c2C1 (centres unmarked) [Example 17, (3-amino-6-(methylsulfonyl)-4,5,6,7-tetrahydropyrazolo[3,4-c]pyridin-1-yl)(6-fluoro-1,2,3,4-tetrahydroquinolin-4-yl)methanone] | 4.52 |
| COc1ccc2c(c1)C(C(=O)n1nc3c(c1N)CCN(S(C)(=O)=O)C3)CCN2 (centres unmarked) [Example 22, (3-amino-6-(methylsulfonyl)-4,5,6,7-tetrahydropyrazolo[3,4-c]pyridin-2-yl)(6-methoxy-1,2,3,4-tetrahydroquinolin-4-yl)methanone] | 5.85 |
| COc1ccc2c(c1)C(C(=O)n1nc(N)c3c1CN(S(C)(=O)=O)CC3)CCN2 (centres unmarked) [Example 23, (3-amino-6-(methylsulfonyl)-4,5,6,7-tetrahydropyrazolo[3,4-c]pyridin-1-yl)(6-methoxy-1,2,3,4-tetrahydroquinolin-4-yl)methanone] | < 4.22 |
| Cn1cc2c(c1)C(C(=O)n1nc(N)c3c1CN(S(C)(=O)=O)CC3)CCC2 (centres unmarked) [Example 27, (3-amino-6-(methylsulfonyl)-4,5,6,7-tetrahydropyrazolo[3,4-c]pyridin-1-yl)(2-methyl-4,5,6,7-tetrahydro-2H-isoindol-4-yl)methanone] | 4.12 |
| Nc1nn(C(=O)C2CCNc3ccc(F)cc32)c2c1CCN(c1ccccc1)C2 (centres unmarked) [Example 29, (3-amino-6-phenyl-4,5,6,7-tetrahydropyrazolo[3,4-c]pyridin-1-yl)(6-fluoro-1,2,3,4-tetrahydroquinolin-4-yl)methanone] | < 4.22 |
| CCc1ccc2c(c1)C(C(=O)n1nc(N)c3c1CN(S(C)(=O)=O)CC3)CCN2 (centres unmarked) [Example 31, (3-amino-6-(methylsulfonyl)-4,5,6,7-tetrahydropyrazolo[3,4-c]pyridin-1-yl)(6-ethyl-1,2,3,4-tetrahydroquinolin-4-yl)methanone] | 4.40 |
| CS(=O)(=O)N1CCc2c(N)nn(C(=O)C3CCNc4c(F)cccc43)c2C1 (centres unmarked) [Example 38, (3-amino-6-(methylsulfonyl)-4,5,6,7-tetrahydropyrazolo[3,4-c]pyridin-1-yl)(8-fluoro-1,2,3,4-tetrahydroquinolin-4-yl)methanone] | 4.15 |
| CS(=O)(=O)N1CCc2c(N)nn(C(=O)C3CCNc4ncccc43)c2C1 (centres unmarked) [Example 42, (3-amino-6-(methylsulfonyl)-4,5,6,7-tetrahydropyrazolo[3,4-c]pyridin-1-yl)(1,2,3,4-tetrahydro-1,8-naphthyridin-4-yl)methanone] | < 4.10 |
| CS(=O)(=O)N1CCc2c(nn(C(=O)C3CC(=O)Nc4ccc(F)cc43)c2N)C1 (centres unmarked) [Example 43, 4-(3-amino-6-(methylsulfonyl)-4,5,6,7-tetrahydro-2H-pyrazolo[3,4-c]pyridine-2-carbonyl)-6-fluoro-3,4-dihydroquinolin-2(1H)-one] | 5.40 |
| CC(C)c1ccc2c(c1)C(C(=O)n1nc(N)c3c1CN(S(C)(=O)=O)CC3)CCN2 (centres unmarked) [Example 46, (3-amino-6-(methylsulfonyl)-4,5,6,7-tetrahydropyrazolo[3,4-c]pyridin-1-yl)(6-isopropyl-1,2,3,4-tetrahydroquinolin-4-yl)methanone] | < 4.10 |
| CC(=O)Nc1ccc2c(c1)C(C(=O)n1nc3c(c1N)CCN(S(C)(=O)=O)C3)CCN2 (centres unmarked) [Example 47, N-(4-(3-amino-6-(methylsulfonyl)-4,5,6,7-tetrahydro-2H-pyrazolo[3,4-c]pyridine-2-carbonyl)-1,2,3,4-tetrahydroquinolin-6-yl)acetamide] | 5.07 |
| CC(=O)Nc1ccc2c(c1)C(C(=O)n1nc(N)c3c1CN(S(C)(=O)=O)CC3)CCN2 (centres unmarked) [Example 48, N-(4-(3-amino-6-(methylsulfonyl)-4,5,6,7-tetrahydro-1H-pyrazolo[3,4-c]pyridine-1-carbonyl)-1,2,3,4-tetrahydroquinolin-6-yl)acetamide] | < 4.52 |
| CS(=O)(=O)N1CCc2c(N)nn(C(=O)C3CCNc4ccc(-c5ccccc5)cc43)c2C1 (centres unmarked) [Example 50, (3-amino-6-(methylsulfonyl)-4,5,6,7-tetrahydropyrazolo[3,4-c]pyridin-1-yl)(6-phenyl-1,2,3,4-tetrahydroquinolin-4-yl)methanone] | < 4.10 |
